Species: Rattus norvegicus
Assay: Open TG-GATES - Regimen: Single
Assay type: toxicity, organism-based, Sprague-Dawley
Set-up: regimen Single, gender Male, age 6 weeks
Settings: in vivo, po, 100 mg/kg, route gavage, dose level Low; for APTT / Bas / Eos / Fbg / Hb / Ht / Lym / MCH / MCHC / MCV / Mono / Neu / PT / Plat / RBC / Ret / WBC: tissue Blood; for KIDNEY_L / KIDNEY_R / KIDNEY_TOTAL: tissue Kidney; for LIVER: tissue Liver; for A/G / ALP / ALT / AST / BUN / CRE / Ca / Cl / DBIL / GLC / IP / K / LDH / Na / PL / RALB / TBIL / TC / TG / TP / gamma-GTP: tissue Plasma

CC[C@@H](CO)NCCN[C@@H](CC)CO [ETHAMBUTOL]
TERMINAL_BW (3 h): 224 g | APTT (3 h): 21.6 s | Bas (3 h): 0% | Eos (3 h): 0.8% | Fbg (3 h): 308 mg/dL | Hb (3 h): 13.7 g/dL | Ht (3 h): 40% | Lym (3 h): 80.4% | MCH (3 h): 21.9 pg | MCHC (3 h): 34.1% | MCV (3 h): 64.2 fL | Mono (3 h): 2.4% | Neu (3 h): 14.8% | PT (3 h): 15.6 s | Plat (3 h): 118 x10_4/uL | RBC (3 h): 623.8 x10_4/ul | Ret (3 h): 8.1% | WBC (3 h): 87.8 x10_2/uL | KIDNEY_L (3 h): 1 g | KIDNEY_R (3 h): 1 g | KIDNEY_TOTAL (3 h): 2 g | LIVER (3 h): 10.9 g | A/G (3 h): 1.2 | ALP (3 h): 1530.6 IU/L | ALT (3 h): 41 IU/L | AST (3 h): 73 IU/L | BUN (3 h): 12.6 mg/dL | CRE (3 h): 0.1 mg/dL | Ca (3 h): 10.4 mg/dL | Cl (3 h): 107.4 meq/L | DBIL (3 h): 0 mg/dL | GLC (3 h): 189.8 mg/dL | IP (3 h): 8.6 mg/dL | K (3 h): 4 meq/L | LDH (3 h): 172.8 IU/L | Na (3 h): 142.2 meq/L | PL (3 h): 134.2 mg/dL | RALB (3 h): 3 g/dL | TBIL (3 h): 0.018 mg/dL | TC (3 h): 72.6 mg/dL | TG (3 h): 74.4 mg/dL | TP (3 h): 5.4 g/dL | gamma-GTP (3 h): 1.8 IU/L | TERMINAL_BW (6 h): 222.5 g | APTT (6 h): 21.1 s | Bas (6 h): 0% | Eos (6 h): 0.8% | Fbg (6 h): 318 mg/dL | Hb (6 h): 13.5 g/dL | Ht (6 h): 39.8% | Lym (6 h): 78.8% | MCH (6 h): 21.8 pg | MCHC (6 h): 33.9% | MCV (6 h): 64.2 fL | Mono (6 h): 2.8% | Neu (6 h): 16% | PT (6 h): 15.8 s | Plat (6 h): 119.6 x10_4/uL | RBC (6 h): 620.4 x10_4/ul | Ret (6 h): 7.4% | WBC (6 h): 92.6 x10_2/uL | KIDNEY_L (6 h): 1 g | KIDNEY_R (6 h): 1.1 g | KIDNEY_TOTAL (6 h): 2.1 g | LIVER (6 h): 10.2 g | A/G (6 h): 1.2 | ALP (6 h): 1476.2 IU/L | ALT (6 h): 45.6 IU/L | AST (6 h): 77 IU/L | BUN (6 h): 12.6 mg/dL | CRE (6 h): 0.2 mg/dL | Ca (6 h): 10.3 mg/dL | Cl (6 h): 106.6 meq/L | DBIL (6 h): 0 mg/dL | GLC (6 h): 180.4 mg/dL | IP (6 h): 9.2 mg/dL | K (6 h): 4.3 meq/L | LDH (6 h): 191.6 IU/L | Na (6 h): 140 meq/L | PL (6 h): 128.6 mg/dL | RALB (6 h): 2.9 g/dL | TBIL (6 h): 0.02 mg/dL | TC (6 h): 72.8 mg/dL | TG (6 h): 54.6 mg/dL | TP (6 h): 5.3 g/dL | gamma-GTP (6 h): 1.8 IU/L | TERMINAL_BW (9 h): 224.5 g | APTT (9 h): 22.3 s | Bas (9 h): 0% | Eos (9 h): 1% | Fbg (9 h): 293.4 mg/dL | Hb (9 h): 13.3 g/dL | Ht (9 h): 38.9% | Lym (9 h): 80% | MCH (9 h): 21.8 pg | MCHC (9 h): 34.2% | MCV (9 h): 63.6 fL | Mono (9 h): 2.2% | Neu (9 h): 15.6% | PT (9 h): 16.2 s | Plat (9 h): 116.9 x10_4/uL | RBC (9 h): 613 x10_4/ul | Ret (9 h): 8% | WBC (9 h): 92.7 x10_2/uL | KIDNEY_L (9 h): 1 g | KIDNEY_R (9 h): 1 g | KIDNEY_TOTAL (9 h): 2.1 g | LIVER (9 h): 9.4 g | A/G (9 h): 1.1 | ALP (9 h): 1292.4 IU/L | ALT (9 h): 36.6 IU/L | AST (9 h): 66.8 IU/L | BUN (9 h): 10 mg/dL | CRE (9 h): 0.2 mg/dL | Ca (9 h): 10.1 mg/dL | Cl (9 h): 106.6 meq/L | DBIL (9 h): 0 mg/dL | GLC (9 h): 186.2 mg/dL | IP (9 h): 9 mg/dL | K (9 h): 4.2 meq/L | LDH (9 h): 143 IU/L | Na (9 h): 140.2 meq/L | PL (9 h): 128.2 mg/dL | RALB (9 h): 2.9 g/dL | TBIL (9 h): 0.02 mg/dL | TC (9 h): 75.4 mg/dL | TG (9 h): 59.2 mg/dL | TP (9 h): 5.4 g/dL | gamma-GTP (9 h): 1.8 IU/L | TERMINAL_BW (24 h): 238.5 g | APTT (24 h): 22.6 s | Bas (24 h): 0% | Eos (24 h): 0.6% | Fbg (24 h): 333.2 mg/dL | Hb (24 h): 13.4 g/dL | Ht (24 h): 38.7% | Lym (24 h): 82.4% | MCH (24 h): 21.7 pg | MCHC (24 h): 34.7% | MCV (24 h): 62.7 fL | Mono (24 h): 2.2% | Neu (24 h): 14% | PT (24 h): 15.9 s | Plat (24 h): 119.4 x10_4/uL | RBC (24 h): 618.4 x10_4/ul | Ret (24 h): 7.6% | WBC (24 h): 93.8 x10_2/uL | KIDNEY_L (24 h): 1 g | KIDNEY_R (24 h): 1.1 g | KIDNEY_TOTAL (24 h): 2.1 g | LIVER (24 h): 11.9 g | A/G (24 h): 1.2 | ALP (24 h): 1636.2 IU/L | ALT (24 h): 46.8 IU/L | AST (24 h): 75.6 IU/L | BUN (24 h): 17 mg/dL | CRE (24 h): 0.1 mg/dL | Ca (24 h): 10.7 mg/dL | Cl (24 h): 106.6 meq/L | DBIL (24 h): 0 mg/dL | GLC (24 h): 186 mg/dL | IP (24 h): 8.2 mg/dL | K (24 h): 4.1 meq/L | LDH (24 h): 129.2 IU/L | Na (24 h): 141.8 meq/L | PL (24 h): 157.6 mg/dL | RALB (24 h): 3.1 g/dL | TBIL (24 h): 0.012 mg/dL | TC (24 h): 88.8 mg/dL | TG (24 h): 87.4 mg/dL | TP (24 h): 5.7 g/dL | gamma-GTP (24 h): 2.2 IU/L

— ChEMBL document CHEMBL3885861, “Open TG-GATES”
